The results in this text go back to patent US20240376099A1, “COMPOUNDS AND COMPOSITIONS AS INHIBITORS OF ENDOSOMAL TOLL-LIKE RECEPTORS” (Novartis AG, priority 2016, published 2024).

The test deals with T1, TLR8 (Homo sapiens, UniProt Q9NR97).
T1 sequence (Q9NR97 27-1041): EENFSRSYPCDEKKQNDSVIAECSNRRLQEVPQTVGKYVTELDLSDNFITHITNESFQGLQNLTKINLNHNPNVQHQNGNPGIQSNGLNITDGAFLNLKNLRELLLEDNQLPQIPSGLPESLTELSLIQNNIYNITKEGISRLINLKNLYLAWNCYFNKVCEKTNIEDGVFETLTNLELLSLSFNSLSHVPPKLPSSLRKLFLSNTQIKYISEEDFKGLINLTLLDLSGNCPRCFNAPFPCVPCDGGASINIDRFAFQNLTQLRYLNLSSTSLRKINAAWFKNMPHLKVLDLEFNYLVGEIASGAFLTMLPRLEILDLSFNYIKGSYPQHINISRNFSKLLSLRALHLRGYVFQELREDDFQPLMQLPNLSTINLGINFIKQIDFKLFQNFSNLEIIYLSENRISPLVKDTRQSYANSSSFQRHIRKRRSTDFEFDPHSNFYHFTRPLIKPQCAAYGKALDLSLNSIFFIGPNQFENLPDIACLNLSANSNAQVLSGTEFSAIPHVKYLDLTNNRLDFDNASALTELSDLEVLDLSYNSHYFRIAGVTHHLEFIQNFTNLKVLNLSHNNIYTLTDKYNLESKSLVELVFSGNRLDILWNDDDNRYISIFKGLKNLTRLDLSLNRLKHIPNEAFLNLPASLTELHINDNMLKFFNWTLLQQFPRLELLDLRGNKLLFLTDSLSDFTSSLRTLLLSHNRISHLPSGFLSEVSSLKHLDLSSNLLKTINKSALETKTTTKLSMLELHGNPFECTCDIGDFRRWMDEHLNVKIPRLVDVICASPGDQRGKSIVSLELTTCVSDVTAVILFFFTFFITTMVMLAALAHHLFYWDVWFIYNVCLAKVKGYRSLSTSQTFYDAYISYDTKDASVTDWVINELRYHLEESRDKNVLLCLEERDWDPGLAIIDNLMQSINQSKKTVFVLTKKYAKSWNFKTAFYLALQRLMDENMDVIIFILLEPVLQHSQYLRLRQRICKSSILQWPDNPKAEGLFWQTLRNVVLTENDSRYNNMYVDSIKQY
The experiment in a line: huPBMC TLR8 Antagonist IL-6 TR-FRET Assay. In kind it is cell-based. Set-up: Fresh blood was collected from normal human donors; endogenous in cells; host or cells: human PBMCs from fresh donor blood. Particulars: human PBMCs stimulated with ssRNA40 1 μg/ml (DOTAP), 14-16 hrs; IL-6 TR-FRET read-out. The method, boiled down: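 Human PBMCs from fresh donor blood (150,000 cells/well) stimulated 14–16 h at 37 °C with DOTAP-complexed ssRNA40 (final 1 μg/ml for TLR8, 10 μg/mL for TLR7) or ODN2216 (final 0.3 μM, TLR9), 0.25% DMSO, ten-point 1/3 compound dilutions. Supernatant IL-6 read by HTRF (TLR8); IFNα by IFNα2b AlphaLISA (TLR7/TLR9).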
(Time-resolved FRET reads energy transfer from a long-lived donor to a nearby acceptor.)
The IC50 is the concentration at which inhibition is half-maximal. As for `CCOCCN(CCOCC)C12CCC(Cn3nc(C)c4c3CCN(c3cc(C)nc5c3cnn5C)C4)(CC1)CC2` [compound 72, 4-((5-(1,6-dimethyl-1H-pyrazolo[3,4-b]pyridin-4-yl)-3-methyl-4,5,6,7-tetrahydro-1H-pyrazolo[4,3-c]pyridin-1-yl)methyl)-N,N-bis(2-ethoxyethyl)bicyclo[2.2.2]octan-1-amine], the IC50 is 102 nM.
`Cc1cc(N2CCc3c(c(C)nn3CC34CCC(N5C[C@@H](O)[C@@H](O)C5)(CC3)CC4)C2)c2cnn(C)c2n1` [compound 74, (3S,4R)-1-(4-((5-(1,6-dimethyl-1H-pyrazolo[3,4-b]pyridin-4-yl)-3-methyl-4,5,6,7-tetrahydro-1H-pyrazolo[4,3-c]pyridin-1-yl)methyl)bicyclo[2.2.2]octan-1-yl)pyrrolidine-3,4-diol]: the IC50 was found to be 158 nM.
The figure for `Cc1cc(N2CCc3c(c(C)nn3CC34CCC(N5CC[C@H](O)C5)(CC3)CC4)C2)c2cnn(C)c2n1` [compound 75, (S)-1-(4-((5-(1,6-dimethyl-1H-pyrazolo[3,4-b]pyridin-4-yl)-3-methyl-4,5,6,7-tetrahydro-1H-pyrazolo[4,3-c]pyridin-1-yl)methyl)bicyclo[2.2.2]octan-1-yl)pyrrolidin-3-ol] is 134 nM; for `Cc1cc(N2CCc3c(c(C)nn3CC34CCC(N(C)C5CCC5)(CC3)CC4)C2)c2cnn(C)c2n1` [compound 79, N-cyclobutyl-4-((5-(1,6-dimethyl-1H-pyrazolo[3,4-b]pyridin-4-yl)-3-methyl-4,5,6,7-tetrahydro-1H-pyrazolo[4,3-c]pyridin-1-yl)methyl)-N-methylbicyclo[2.2.2]octan-1-amine] it is 136 nM.
With `Cc1cc(N2CCc3c(c(C)nn3CC34CCC(N5C[C@H](O)[C@@H](O)C5)(CC3)CC4)C2)c2cnn(C)c2n1` [compound 80, (3S,4S)-1-(4-((5-(1,6-dimethyl-1H-pyrazolo[3,4-b]pyridin-4-yl)-3-methyl-4,5,6,7-tetrahydro-1H-pyrazolo[4,3-c]pyridin-1-yl)methyl)bicyclo[2.2.2]octan-1-yl)pyrrolidine-3,4-diol], the IC50 worked out at 466 nM.
As to `Cc1nn(CC23CCC(N4CCCC4)(CC2)CC3)c2c1CN(c1ccnc(-c3ccccc3)c1)CC2` [compound 85, 3-methyl-5-(2-phenylpyridin-4-yl)-1-((4-(pyrrolidin-1-yl)bicyclo[2.2.2]octan-1-yl)methyl)-4,5,6,7-tetrahydro-1H-pyrazolo[4,3-c]pyridine], the IC50 stood at 224 nM.
`Cc1cc(N2CCc3c(c(C)nn3CC34CCC(N5CCCC5)(CC3)CC4)C2)c2ccncc2n1` [compound 86, 2-methyl-4-(3-methyl-1-((4-(pyrrolidin-1-yl)bicyclo[2.2.2]octan-1-yl)methyl)-6,7-dihydro-1H-pyrazolo[4,3-c]pyridin-5(4H)-yl)-1,7-naphthyridine]: the IC50 came out at 48 nM.
`Cc1cc(N2CCc3c(c(C)nn3CCC34CCC(N)(CC3)CC4)C2)c2cnn(C)c2n1` [compound 91, 4-(2-(5-(1,6-dimethyl-1H-pyrazolo[3,4-b]pyridin-4-yl)-3-methyl-4,5,6,7-tetrahydro-1H-pyrazolo[4,3-c]pyridin-1-yl)ethyl)bicyclo[2.2.2]octan-1-amine]: the IC50 was found to be 377 nM.
As to `Cc1cc(N2CCc3c(c(C)nn3CC34CCC(N)(CC3)CC4)C2)c2ccnc(C)c2n1` [compound 92, 4-((5-(2,8-dimethyl-1,7-naphthyridin-4-yl)-3-methyl-4,5,6,7-tetrahydro-1H-pyrazolo[4,3-c]pyridin-1-yl)methyl)bicyclo[2.2.2]octan-1-amine], the IC50 was 40 nM.
